Experimental data taken from patent US6924289B2, “Benzyl(Idene)-lactam derivatives, their preparation and their use as selective (ANT) agonists of 5-HT1A- and/or 5-HT1D receptors” (Pfizer Inc, priority 1996, dated 2005).
Structures can show the parent of a compound that is named as a salt.

Row | melting point | Compound
1 | 106 to 108 °C | CN1CCN(c2ccccc2CC2CCCN(c3ccc(Cl)c(Cl)c3)C2=O)CC1.Cl (stereo not drawn)
2 | 83 to 85 °C | CN1CCN(c2ccc(F)cc2CC2CCCN(c3ccc(Cl)c(Cl)c3)C2=O)CC1.Cl (stereo not drawn)
3 | 111 to 112 °C | CN(C)CCOc1ccccc1C=C1CCN(c2ccc(Cl)c(Cl)c2)C1=O (as salt: HCl) [Example 27, 1-(3,4-Dichlorophenyl)-3-[2-(2-dimethylaminoethoxy)-benzylidene]-pyrrolidin-2one]
4 | 181 to 183 °C | CN1CCN(c2ccccc2C=C2CCN(c3ccc(C(F)(F)F)cc3)C2=O)CC1 (as salt: hydrochloride) (hydrate or solvate) [Example 16, 3-[2-(4-Methylpiperazin-1-yl)-benzylidene]-1-(4-trifluoromethylphenyl)-pyrrolidin-2-one]
5 | 120 °C (dec.) | CN1CCN(c2ccccc2C=C2C(=O)N(C)c3ccccc32)CC1.Cl.O (hydrate or solvate)
6 | 177 to 178 °C | CN1CCN(c2ccccc2C=C2CCCN(c3ccc(Cl)cc3)C2=O)CC1 [Example 11, 1-(4Chlorophenyl)-3-[2-(4-methylpiperazin-1-yl)-benzylidene]-piperidin-2-one]
7 | 138 to 139.5 °C | CN1CCN(c2ccccc2C=C2CCCN(c3ccc(Cl)c(Cl)c3)C2=O)CC1 [Example 12, 1-(3,4-Dichlorophenyl)-3-[2-(4-methylpiperazin-1-yl)-benzylidene]-piperidin-2-one]
8 | 158 to 159 °C | CN1CCN(c2ccc(F)cc2C=C2CCCN(c3ccc(Cl)cc3)C2=O)CC1 [Example 13, 1-(4-Chlorophenyl)-3-[5-fluoro-2-(4-methylpiperazin-1-yl)-benzylidene]-piperidin-2-one]
9 | 161 to 162 °C | CN1CCN(c2ccc(F)cc2C=C2CCCN(c3ccc(Cl)c(Cl)c3)C2=O)CC1 [Example 14, 1-(3,4-Dichlorophenyl)-3-[5-fluoro-2-(4methylpiperazin-1-yl)-benzylidene]-piperidin-2-one]
10 | 178 to 179.5 °C | CN1CCN(c2ccccc2C=C2CCN(c3ccccc3)C2=O)CC1 [Example 15, 3-[2-(4-Methylpiperazin-1-yl)-benzylidene]-1 phenylpyrrolidin-2-one]
11 | 185 to 186.5 °C | CN1CCN(c2ccccc2C=C2CCN(c3ccc(C(F)(F)F)cc3)C2=O)CC1 [Example 16, 3-[2-(4-Methylpiperazin-1-yl)-benzylidene]-1-(4-trifluoromethylphenyl)-pyrrolidin-2-one]
12 | 188 to 190 °C | CN1CCN(c2ccccc2C=C2CCN(c3ccc(Cl)cc3)C2=O)CC1 [Example 18, 1-(4-Chlorophenyl)-3-[2-(4-methylpiperazin-1-yl)-benzylidene]-pyrrolidin-2-one]
13 | 199 to 200.5 °C | CN1CCN(c2cc(F)ccc2C=C2CCN(c3ccccc3)C2=O)CC1 [Example 19, 3-[4Fluoro-2-(4-methylpiperazin-1-yl)-benzylidene]-1-phenylpyrrolidin-2-one]
14 | 170 to 171 °C | CN1CCN(c2cccc(F)c2C=C2CCN(c3ccc(Cl)c(Cl)c3)C2=O)CC1 [Example 20, 1-(3,4-Dichlorophenyl)-3-[2-fluoro-6-(4-methylpiperazin-1-yl)-benzylidene]-pyrrolidin-2-one]
15 | 168 to 170 °C | CN1CCN(c2ccc(F)cc2C=C2CCCN(c3ccc(F)c(F)c3)C2=O)CC1 [Example 21, 1-(3,4-Difluorophenyl)-3-[5-fluoro-2(4-methylpiperazin-1-yl)-benzylidene]-piperidin-2-one]
16 | 88 to 90 °C | CN1CCN(c2ccc(F)cc2C=C2CCCN(CCc3ccc(Cl)cc3)C2=O)CC1 [Example 22, 1-[2-(4Chlorophenyl)ethyl]-3-[5-fluoro-2-(4-methylpiperazin-1-yl)-benzylidene]-piperidin-2-one]
17 | 129 to 130 °C | CN1CCN(c2ccccc2C=C2CCN(Cc3ccc(Cl)cc3)C2=O)CC1 [Example 23, 1-(4-Chlorobenzyl)-3-[2-(4-methylpiperazin-1-yl)-benzylidene]-pyrrolidin-2-one]
18 | 131 to 132 °C | CN1CCN(c2ccc(F)cc2C=C2CCN(Cc3ccc(Cl)cc3)C2=O)CC1 [Example 24, 1-(4-Chlorobenzyl)-3-[5-fluoro-2-(4-methylpiperazin-1-yl)-benzylidene]-pyrrolidin-2one]
19 | 149 to 150 °C | Cc1ccc(N2CCN(C)CC2)c(C=C2CCN(c3ccc(Cl)c(Cl)c3)C2=O)c1 [Example 28, 1-(3,4-Dichlorophenyl)-3-[5-methyl-2-(4-methylpiperazin-1-yl)-benzylidene]-pyrrolidin-2one]
20 | 130 to 131 °C | CN1CCN(c2ccccc2CC2CCN(c3ccc(F)c(F)c3)C2=O)CC1 (stereo not drawn) [Example 29, 1-(3,4-Difluorophenyl)-3-[2-(4-methylpiperazin-1-yl)-benzyl]-pyrrolidin-2-one]
21 | 104 to 105.5 °C | CN1CCN(c2ccccc2CC2CCN(c3ccccc3)C2=O)CC1 (stereo not drawn) [Example 30, 3-[2-(4-Methylpiperazin-1-yl)-benzyl]-1-phenyl-pyrrolidin-2-one]
